Laboratory results as given in US12049450B2, “Pyridyloxy-carboxylate derivative and preparation method therefor, herbicidal composition, and use” (Qingdao Kingagroot Chemical Compound Co., Ltd., priority 2018, dated 2024).

What was measured:
Assay type in all cases: in vivo
Abutilon theophrasti = assay: Post-emergence test experiment (greenhouse pot, spray at 2-3 leaf stage); conditions: 1000 g/ha; post-emergence spray at 2-3 leaf stage; assessed after 3 weeks; fresh weight inhibition rate
In short: (§1)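 Activity graded levels 0-5 by fresh-weight inhibition (level 5 above 85%, level 0 below 5%), assessed 3 weeks after treatment. Plants grown in greenhouse pots were sprayed post-emergence at 2-3 leaves using acetone/tween-80 solutions with methyl oleate synergist (1.5 L/ha).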

Cyperus iria = assay: as above; conditions: 600 g/ha; for Cyperus iria, activity level (growth inhibition rate): post-emergence, after 3 weeks, from Hunan, resistant to ALS inhibitor herbicides
In short: as §1

Digitaria sanguinalis = assay: as above; conditions: for Activity level (growth inhibition rate) Digitaria sanguinalis: 1000 g/ha, post-emergence spray at 2-3 leaf stage, assessed after 3 weeks, fresh weight inhibition rate
In short: as §1

Echinochloa crusgalli = assay: as above; conditions: for Activity level (growth inhibition rate) Echinochloa crusgalli: 1000 g/ha, post-emergence spray at 2-3 leaf stage, assessed after 3 weeks, fresh weight inhibition rate; for Echinochloa crusgalli, activity level (growth inhibition rate): post-emergence, after 3 weeks, from Hunan, resistant to ALS inhibitor herbicides
In short: as §1

Galium spurium = assay: as above; conditions: 1000 g/ha; post-emergence spray at 2-3 leaf stage; assessed after 3 weeks; fresh weight inhibition rate
In short: as §1

Indica rice = assay: as above; conditions: 600 g/ha; for Indica rice, activity level (growth inhibition rate): post-emergence, after 3 weeks
In short: as §1

Japonica rice = assay: as above; conditions: 600 g/ha; for Japonica rice, activity level (growth inhibition rate): post-emergence, after 3 weeks
In short: as §1

Monochoria vaginalis [1] = assay: as above; conditions: 1000 g/ha; post-emergence spray at 2-3 leaf stage; assessed after 3 weeks; fresh weight inhibition rate
In short: as §1

rice (japonica rice) = assay: Transplanted rice safety evaluation in rice field soil pot; conditions: 1000 g/ha, 21 days after treatment
Description: (§2) The activity level standard of harmful plants destruction (i. e. growth inhibition rate) is as follows: • Level 5: the growth inhibition rate is greater than 85%; • Level 4: the growth inhibition rate is equal to or greater than 60% and less than 85%; • Level 3: the growth inhibition rate is equal to or greater than 40% and less than 60%; • Level 2: the growth inhibition rate is equal to or greater than 20% and less than 40%; • Level 1: the growth inhibition rate is equal to or greater than 5% and less than 20%; • Level 0: the growth inhibition rate is less than 5%;
(§3) Transplanted rice safety evaluation and weed control effect evaluation in rice field:
In addition, the rice field soil that loaded into the 1/1,000,000 ha pot was leveled to keep water storage at 3-4 cm depth. The 3-leaf stage rice (japonica rice) was transplanted at 3 cm of transplanting depth the next day. The compound of the present invention was treated by the same way after 5 days of transplantation.
(§4) The fertility condition of Monochoria vaginalis 14 days and rice 21 days after the treatment of the compound of the invention with the naked eye.

Monochoria vaginalis [2] = assay: Weed control effect evaluation in rice field soil pot; conditions: paddy pot, 1000 g/ha, 14 days after treatment; resistant to pyrazosulfuron-ethyl and penoxsulam
Description: as §2, §3
Rice field soil was loaded into a 1/1,000,000 ha pot. The seeds of Monochoria vaginalis were sowed and gently covered with soil, then left to stand still in greenhouse in the state of 0.5-1 cm of water storage. It was kept at 3-4 cm of water storage thereafter. The weeds were treated by dripping the WP or SC water diluents prepared according to the common preparation method of the compounds of the present invention with pipette homogeneously to achieve specified effective amount when Monochoria vaginalis reached 0.5 leaf stage.
as §4

Soybean = assay: Spray drift test, application by unmanned gyroplane, soybean field at 10 meters; conditions: 600 g/ha, gyroplane at 1 m, gentle breeze
Experimental: Broadleaf crops are very sensitive to hormonal herbicides, therefore crop injuries are more likely to occur in case of spray drifting. Tests were conducted in gentle breeze for the compounds of the present invention. The formulation of the compounds of the present invention was applied by DJI unmanned gyroplane with application height of 1 m and water volume of 20 kg/ha. The use rate was 600 g/ha. The active ingredient was dissolved by acetone and diluted to aqueous solution of Tween 80. There's a soybean field at 10 meters from the application area and the height of soybean plants were about 15 cm at the application time.

Echinochloa phyllopogon = assay: Post-emergence test experiment (greenhouse pot, spray at 2-3 leaf stage); conditions: 600 g/ha
In short: as §1

Leptochloa chinensis = assay: as above; conditions: 600 g/ha
In short: as §1

Setaria viridis = assay: as above; conditions: 600 g/ha
In short: as §1

[3] = post-emergence comparison, 600 g/ha

CC(Oc1nc(F)c(Cl)c(N)c1Cl)C(=O)OCc1ccccc1 (centres unmarked) [Compound 4]
Activity level (growth inhibition rate) Abutilon theophrasti (Abutilon theophrasti): 5 (Level 5: the growth inhibition rate is greater than 85%)
Cyperus iria, activity level (growth inhibition rate) (Cyperus iria): 5 (Level 5: the growth inhibition rate is greater than 85%)
Activity level (growth inhibition rate) Digitaria sanguinalis (Digitaria sanguinalis): 5 (Level 5: the growth inhibition rate is greater than 85%)
Activity level (growth inhibition rate) Echinochloa crusgalli (Echinochloa crusgalli): 5 (Level 5: the growth inhibition rate is greater than 85%)
Echinochloa crusgalli, activity level (growth inhibition rate) (Echinochloa crusgalli; 600 g/ha): 5 (Level 5: the growth inhibition rate is greater than 85%)
Activity level (growth inhibition rate) Galium spurium (Galium spurium): 5 (Level 5: the growth inhibition rate is greater than 85%)
Indica rice, activity level (growth inhibition rate) (Indica rice): 0 (Level 0: the growth inhibition rate is less than 5%)
Japonica rice, activity level (growth inhibition rate) (Japonica rice): 0 (Level 0: the growth inhibition rate is less than 5%)
Activity level (growth inhibition rate) Monochoria Vaginalis (Monochoria vaginalis [1]): 5 (Level 5: the growth inhibition rate is greater than 85%)
Rice, safety level (rice (japonica rice)): 0 (Level 0: the growth inhibition rate is less than 5%)
Monochoria Vaginalis, activity level (Monochoria vaginalis [2]): 5 (Level 5: the growth inhibition rate is greater than 85%)
Soybean, injury level by spray drift (Soybean): 0 (Level 0: the growth inhibition rate is less than 5%)

CC(Oc1nc(F)c(Cl)c(N)c1Cl)C(=O)OCCc1ccoc1 (centres unmarked) [Compound 140]
Activity level (growth inhibition rate) Abutilon theophrasti (Abutilon theophrasti): 5 (Level 5: the growth inhibition rate is greater than 85%)
Cyperus iria, activity level (growth inhibition rate) (Cyperus iria): 5 (Level 5: the growth inhibition rate is greater than 85%)
Activity level (growth inhibition rate) Digitaria sanguinalis (Digitaria sanguinalis): 5 (Level 5: the growth inhibition rate is greater than 85%)
Activity level (growth inhibition rate) Echinochloa crusgalli (Echinochloa crusgalli): 5 (Level 5: the growth inhibition rate is greater than 85%)
Echinochloa crusgalli, activity level (growth inhibition rate) (Echinochloa crusgalli; 600 g/ha): 5 (Level 5: the growth inhibition rate is greater than 85%)
Activity level (growth inhibition rate) Galium spurium (Galium spurium): 5 (Level 5: the growth inhibition rate is greater than 85%)
Indica rice, activity level (growth inhibition rate) (Indica rice): 0 (Level 0: the growth inhibition rate is less than 5%)
Japonica rice, activity level (growth inhibition rate) (Japonica rice): 0 (Level 0: the growth inhibition rate is less than 5%)
Activity level (growth inhibition rate) Monochoria Vaginalis (Monochoria vaginalis [1]): 5 (Level 5: the growth inhibition rate is greater than 85%)
Rice, safety level (rice (japonica rice)): 0 (Level 0: the growth inhibition rate is less than 5%)
Monochoria Vaginalis, activity level (Monochoria vaginalis [2]): 5 (Level 5: the growth inhibition rate is greater than 85%)

CC(Oc1nc(F)c(Cl)c(N)c1Cl)C(=O)SCc1ccc2ncccc2c1 (centres unmarked) [Compound 185]
Activity level (growth inhibition rate) Abutilon theophrasti (Abutilon theophrasti): 5 (Level 5: the growth inhibition rate is greater than 85%)
Cyperus iria, activity level (growth inhibition rate) (Cyperus iria): 5 (Level 5: the growth inhibition rate is greater than 85%)
Activity level (growth inhibition rate) Digitaria sanguinalis (Digitaria sanguinalis): 5 (Level 5: the growth inhibition rate is greater than 85%)
Activity level (growth inhibition rate) Echinochloa crusgalli (Echinochloa crusgalli): 5 (Level 5: the growth inhibition rate is greater than 85%)
Echinochloa crusgalli, activity level (growth inhibition rate) (Echinochloa crusgalli; 600 g/ha): 5 (Level 5: the growth inhibition rate is greater than 85%)
Activity level (growth inhibition rate) Galium spurium (Galium spurium): 5 (Level 5: the growth inhibition rate is greater than 85%)
Indica rice, activity level (growth inhibition rate) (Indica rice): 0 (Level 0: the growth inhibition rate is less than 5%)
Japonica rice, activity level (growth inhibition rate) (Japonica rice): 0 (Level 0: the growth inhibition rate is less than 5%)
Activity level (growth inhibition rate) Monochoria Vaginalis (Monochoria vaginalis [1]): 5 (Level 5: the growth inhibition rate is greater than 85%)
Rice, safety level (rice (japonica rice)): 0 (Level 0: the growth inhibition rate is less than 5%)
Monochoria Vaginalis, activity level (Monochoria vaginalis [2]): 5 (Level 5: the growth inhibition rate is greater than 85%)

CC(Oc1nc(F)c(Cl)c(N)c1Cl)C(=O)OCc1c(F)c(F)c(F)c(F)c1F (centres unmarked) [Compound 238]
Activity level (growth inhibition rate) Abutilon theophrasti (Abutilon theophrasti): 5 (Level 5: the growth inhibition rate is greater than 85%)
Cyperus iria, activity level (comparison test) (Cyperus iria; post-emergence comparison): 5 (Level 5: the growth inhibition rate is greater than 85%)
Activity level (growth inhibition rate) Digitaria sanguinalis (Digitaria sanguinalis): 5 (Level 5: the growth inhibition rate is greater than 85%)
Digitaria sanguinalis, activity level (comparison test) (Digitaria sanguinalis; [3]): 5 (Level 5: the growth inhibition rate is greater than 85%)
Activity level (growth inhibition rate) Echinochloa crusgalli (Echinochloa crusgalli): 5 (Level 5: the growth inhibition rate is greater than 85%)
Echinochloa crusgalli, activity level (comparison test) (Echinochloa crusgalli; [3]): 5 (Level 5: the growth inhibition rate is greater than 85%)
Echinochloa phyllopogon, activity level (comparison test) (Echinochloa phyllopogon): 4 (Level 4: the growth inhibition rate is equal to or greater than 60% and less than 85%)
Activity level (growth inhibition rate) Galium spurium (Galium spurium): 5 (Level 5: the growth inhibition rate is greater than 85%)
Indica rice, activity level (comparison test) (Indica rice; post-emergence comparison): 0 (Level 0: the growth inhibition rate is less than 5%)
Japonica rice, activity level (comparison test) (Japonica rice; post-emergence comparison): 0 (Level 0: the growth inhibition rate is less than 5%)
Leptochloa chinensis, activity level (comparison test) (Leptochloa chinensis): 5 (Level 5: the growth inhibition rate is greater than 85%)
Activity level (growth inhibition rate) Monochoria Vaginalis (Monochoria vaginalis [1]): 5 (Level 5: the growth inhibition rate is greater than 85%)
Setaria viridis, activity level (comparison test) (Setaria viridis): 5 (Level 5: the growth inhibition rate is greater than 85%)
